Read-outs that look alike come from different tables or passages of the source.
Key:
Jurkat cells = experiment: Toxicity assays in Jurkat cells (cell counting, necrosis and apoptosis by flow cytometry); type: cell-based, Human; settings: 60 μM; flow cytometry
Protocol: Fig 8 Toxicity assays in Jurkat cells. Jurkat cells were adjusted to 1×10^9 cells/L in RPMI-1640 medium containing 1% Penicillin/Streptomycin and 10% fetal bovine serum. The cells were grown in triplicate in the presence or absence of compound 5 at the indicated concentrations for 4 days at 37°C, under a humidified 5% CO2 atmosphere. CAM was used as a reference compound. For cell necrosis and apoptosis assays, samples (10^6 cells) were collected daily and determined by flow cytometry. Apoptotic and necrotic cells were expressed as a percentage of total cells.
Human leukemic cell lines, HS-Sultan (Burkitt’s lymphoma), Jurkat (T-cell acute lymphoblastic leukemia), and U937 (histiocytic lymphoma), were adjusted to 1×10^9 cells/l in RPMI-1640 medium supplemented with 10% fetal bovine serum and 1% penicillin/streptomycin. The cells were grown in triplicate in the absence (control cultures) or presence of CAM or CAM dimers for 4 days at 37°C, under a humidified 5% CO2 atmosphere. The medium was changed daily; CAM or CAM dimer addition was repeated after medium change. Aliquots were collected daily and counted in a CELL-DYN 3700 Hematology Analyzer. For cell necrosis and apoptosis assays, samples (10^6 cells) were collected and determined using the Annexin V-PE Apoptosis Detection Kit I (BD Pharmingen) for flow cytometry, according to the manufacturers’ instructions. Flow cytometry data were analyzed using the FlowJo flow cytometry analysis software. Necrotic and apoptotic cells were expressed as a percentage of total cells.

[1] = test system: Escherichia coli ribosomes; parameters: method as in earlier work; settings: equilibrium dialysis, cited from earlier work
[2] = test system: post-translocation ribosomal complex (complex C) derived from E. coli; parameters: method as in Xaplanteri et al., [6]; settings: ref Xaplanteri et al., [6], cited from earlier work
E. faecium (GRE5152) = experiment: Antibacterial activity (growth inhibition, EC50); type: cell-based; settings: Enterococcus faecium
Description: (§1) A.S. Mankin (University of Illinois). E. coli ΔtolC strain BL21 DE3 with impaired AcrAB-TolC, a proton-dependent MDR efflux pump causing multidrug resistance, was offered by Dr D.N. Wilson (University of Munich) and included in our study to test if this mechanism of resistance affects the efficacy of CAM dimers. […] I. Spiliopoulou (National Reference Laboratory for Staphylococci, School of Medicine, University of Patras, Greece). Finally, E. coli strain Rosetta(DE3)pLysS, containing a chloramphenicol resistant gene in the pLysS plasmid, was purchased from Novagen and was also included in our study. Briefly, S. aureus or E. coli cells (200 μl of a 0.700 OD560 preculture) containing wild-type or mutant ribosomes were added in 3.8 ml of LB (Luria-Bertani) medium and grown at 37°C in the presence or absence of CAM or CAM dimers until the optical density of the control culture (grown in the absence of drug) reached the value 0.700 at 560 nm. For E. faecium and P. aeruginosa cultures, TSB (Tryptic Soy Broth) medium was used, instead of LB medium, in order to achieve exponential doubling times between 25 and 35 minutes. From dose-response curves, the half-maximal effective concentration (EC50) for each compound and strain was estimated. EC50 represents the molar concentration of a compound that produces 50% of the maximal possible effect. The EC50 values were mathematically determined by non linear regression fitting of the observed culture optical-density values, expressed as the percentage of 0.700 (y), into Hill Equation, y=min+max−min/1+(x/EC50)^−n where min and max are the lowest and highest observed values of the culture optical density, respectively, x the concentration of the tested compound, and n the Hill coefficient that represents the largest absolute value of the curve slope. EC50 is equal to the x- value of the sigmoid’s midpoint. Fitting was performed using the Four Parameter Logistic Curve of the SigmaPlot Program Version 11.0 (Systat Software, Inc) for Exact Graphs and Data Analysis.

MRSA (GRE2272) = experiment: Antibacterial activity (growth inhibition, EC50); type: cell-based; settings: Staphylococcus aureus
Description: as §1

MRSA (GRE2691) = experiment: Antibacterial activity (growth inhibition, EC50); type: cell-based; settings: Staphylococcus aureus
Description: as §1

S. aureus (WT) = experiment: Antibacterial activity (growth inhibition, EC50); type: cell-based; settings: Staphylococcus aureus
Description: as §1

E. coli (A2503C) = experiment: Antibacterial activity (growth inhibition, EC50); type: cell-based, Escherichia coli; settings: Escherichia coli
Description: as §1

E. coli (A2058G) = experiment: Antibacterial activity (growth inhibition, EC50); type: cell-based, Escherichia coli; settings: Escherichia coli
Description: as §1

E. coli (ΔtolC) = experiment: Antibacterial activity (growth inhibition, EC50); type: cell-based, Escherichia coli
Description: as §1

[3] = test system: E. coli Rosetta(DE3)pLysS; experiment: Antibacterial activity (growth inhibition, EC50); type: cell-based, Escherichia coli; settings: Escherichia coli
Description: as §1

E. coli (WT) = experiment: Antibacterial activity (growth inhibition, EC50); type: cell-based, Escherichia coli
Description: as §1

P. aeruginosa (GRE5288) = experiment: Antibacterial activity (growth inhibition, EC50); type: cell-based, Pseudomonas aeruginosa
Description: as §1

ribosome = target: ribosome; parameters: method as in PMID 14654696; settings: read-out: K i, cryptic low-affinity site (entrance to the exit tunnel); cited from earlier work

Question: Which “apoptosis, expressed as a percentage of total cells” value (Jurkat cells) does the source give for `O=C(N[C@H](CO)[C@H](O)c1ccc([N+](=O)[O-])cc1)C(Cl)Cl` [CAM, chloramphenicol] here?
Answer: Its value is “did not induce any necrosis/apoptosis effect”.

Question: And the necrosis (Jurkat cells)?
Answer: Its necrosis is “did not induce any necrosis/apoptosis effect”.

Question: What about the Kd ([1]; read-out: K D, high affinity site) of the same molecule?
Answer: The Kd was 2 µM.

Question: And the Kd ([1]; read-out: K D, low affinity site)?
Answer: Its Kd is 200 µM.

Question: And the Ki ([2]; encounter complex CI)?
Answer: The Ki was 3100 ± 300 nM.

Question: What about the Ki ([2]; overall inhibition constant) of the same molecule?
Answer: The Ki was 880 ± 70 nM.

Question: And the k off [2]?
Answer: Its k off is 0.99 ± 0.04 min⁻¹.

Question: And the EC50 (E. faecium (GRE5152))?
Answer: Its EC50 is 3.5 ± 0.3 µM.

Question: What about the EC50 (MRSA (GRE2272)) of the same molecule?
Answer: Its EC50 is 8.4 ± 0.7 µM.

Question: And the EC50 (MRSA (GRE2691))?
Answer: Its EC50 is 12.8 ± 1.5 µM.

Question: And the EC50 (S. aureus (WT))?
Answer: Its EC50 is 2900 ± 100 nM.

Question: And the EC50 (E. coli (A2503C))?
Answer: Its EC50 is 24.9 ± 2.5 µM.

Question: What about the EC50 (E. coli (A2058G)) of the same molecule?
Answer: The EC50 was 15.9 ± 1.1 µM.

Question: What about the “fold more sensitive than wild-type E. coli” value (E. coli (ΔtolC); E. coli BL21 DE3 (ΔtolC) versus wild-type E. coli) of the same molecule?
Answer: Its value is “approximately 2 fold”.

Question: And the EC50 (E. coli (ΔtolC); Escherichia coli, BL21-DE3)?
Answer: Its EC50 is 2200 ± 100 nM.

Question: And the EC50 [3]?
Answer: The EC50 was 115 ± 16.3 µM.

Question: And the EC50 (E. coli (WT); Escherichia coli, LB medium, 37°C, OD560)?
Answer: The EC50 was 4.4 ± 0.2 µM.

Question: And the “EC50(cell growth)/IC50(puro)” value (E. coli (WT); wild-type E. coli, IC50(puro) calculated from Ki* at 2 mM puromycin)?
Answer: The value was 0.84 ± 0.07.

Question: What about the “fold higher EC50 value than wild-type E. coli” value (P. aeruginosa (GRE5288); P. aeruginosa versus wild-type E. coli) of the same molecule?
Answer: Its value is 6 fold.

Question: And the EC50 (P. aeruginosa (GRE5288); Pseudomonas aeruginosa)?
Answer: The EC50 was 25.6 ± 2.2 µM.

Question: What about the Ki (ribosome) of the same molecule?
Answer: The Ki was about 300 µM.

From publication PMC4533973, “Synthesis and Evaluation of Chloramphenicol Homodimers: Molecular Target, Antimicrobial Activity, and Toxicity against Human Cells” (PLoS ONE, 2015)
